What was measured:
Format in all cases: physicochemical
[1] = Kinetics of IChU reactions with reference electrophile (lil)2CH+ (stopped-flow photometry); settings: E = −10.04, dichloromethane, 20 °C
Excerpt: (§1) In order to systematically investigate the influence of the chalcogen atom on the nucleophilicity of DHPB‐derived IChUs (Ch = O, S, Se, and Te), we utilized Mayr's benzhydrylium methodology.^[ [107] ^]
(§2) In accordance with observations in previous studies on ITU reactivity,^[ [119] ^] mixing the strongly colored benzhydrylium tetrafluoroborates 18 with excess IChUs in dichloromethane gave rise to decolorization of the solutions due to the formation of isochalcogenouronium tetrafluoroborates 19, which are colourless (Figure 3a). […] To establish pseudo first‐order conditions and to secure a sufficient decay of the benzhydrylium's absorbance during the course of the reactions, the IChUs were employed at higher concentrations than the benzhydrylium ions. First‐order rate constants k obs (s^−1) were determined by fitting the mono‐exponential decay function in Equation (2) to the decreasing absorbance (A) of 18 during their reaction with the IChUs as exemplified for the reaction of ITeU3 with (ind)2CH^+ in Figure 3b. […]
(§3) First‐order rate constants k obs correlated linearly with the IChU concentration. Therefore, second‐order rate constants k 2 (L mol^−1 s^−1) were determined from the slope of the linear regression curves (Figure 3c ^[ [95] ^]). […]

[2] = Kinetics of IChU reactions with reference electrophile (ind)2CH+ (stopped-flow photometry); settings: E = −8.76, dichloromethane, 20 °C
Excerpt: as §1
In accordance with observations in previous studies on ITU reactivity,^[ [119] ^] mixing the strongly colored benzhydrylium tetrafluoroborates 18 with excess IChUs in dichloromethane gave rise to decolorization of the solutions due to the formation of isochalcogenouronium tetrafluoroborates 19, which are colourless (Figure 3a). Owing to reversibility of the C─N bond formation, generated adducts 19 from the IChU/benzhydrylium reactions were not isolated but characterized by ^1H, ^13C, and ^77Se NMR spectroscopy (the ^77Se nucleus is remarkably sensitive with observed changes of around 100 ppm when comparing the ^77Se resonances of free ISeUs with those of the corresponding selenouronium tetrafluoroborates^[ [95] ^]). The kinetics of the IChU reactions with the reference electrophiles 18 were traced by photometric methods using standard stopped‐flow techniques. To establish pseudo first‐order conditions and to secure a sufficient decay of the benzhydrylium's absorbance during the course of the reactions, the IChUs were employed at higher concentrations than the benzhydrylium ions. First‐order rate constants k obs (s^−1) were determined by fitting the mono‐exponential decay function in Equation (2) to the decreasing absorbance (A) of 18 during their reaction with the IChUs as exemplified for the reaction of ITeU3 with (ind)2CH^+ in Figure 3b. (2) A=A0e^−kobst+C […]
First‐order rate constants k obs correlated linearly with the IChU concentration. Therefore, second‐order rate constants k 2 (L mol^−1 s^−1) were determined from the slope of the linear regression curves (Figure 3c ^[ [95] ^]). Second‐order rate constants k 2 for all kinetically investigated reactions of DHPB‐derived IChUs (Ch = O, S, Se, and Te) with benzhydrylium ions 18 are gathered in Table 1.
Apart from CH2Cl2 also MeCN and THF are solvents that are commonly employed in reactions involving isochalcogenoureas. […]

[3] = Kinetics of IChU reactions with reference electrophile (thq)2CH+ (stopped-flow photometry); settings: E = −8.22, dichloromethane, 20 °C
Excerpt: as §1, §2, §3

[4] = Lewis basicity LB from equilibrium constants (photometric titrations) with benzhydrylium ions as reference Lewis acids; parameters: key: Mayr Lewis basicity scale; LB from K and reference LA via Eq. (3); settings: in dichloromethane, 20 °C
Experimental: (a) Lewis basicity. Previously, the Mayr group established a series of benzhydrylium ions as C‐centered Lewis acid references to construct a Lewis basicity scale in dichloromethane. Substituting experimentally determined equilibrium constants K (at 20 °C) and reported Lewis acidities LA for the benzhydrylium ions (Figure 7) in Equation (3) enables one to calculate the Lewis basicity (LB) of a Lewis base.^[ [121], [127] ^] (3) lgK(20^∘C)=LA+LB
The reversibility of the formation of adducts 19 (Equation (4)), which was also apparent in the kinetics by significant positive intercepts in several of the k obs versus [IChU] plots (Supporting Information), provided the opportunity to probe the thermodynamics of the C‐N bond‐forming reactions of IChUs with benzhydrylium ions as the reference Lewis acids in more detail.^[ [95] ^] (4) IChU+Ar2CH^+(18)⇌Ar2CH-IChU^+(19)
By assuming the validity of the Beer–Lambert law for dilute solutions, equilibrium constants K (L mol^−1) were determined in photometric titrations according to Equation (5) from the initial absorbance (A 0) of the benzhydrylium ions 18 and the absorbance at equilibrium (A, Equation 5), that is, after addition of a certain amount of an IChU.^[ [109], [110], [111], [112], [113], [114], [115], [119] ^] (5) K=[19]/[18]IChU=A0−A/AIChU

[5] = Kinetics of IChU reactions with reference electrophile (mor)2CH+ (stopped-flow photometry); settings: E = −5.53, dichloromethane, 20 °C
Excerpt: as §1, §2, §3

[6] = Kinetics of IChU reactions with reference electrophile (dpa)2CH+ (stopped-flow photometry); settings: E = −4.72, dichloromethane, 20 °C
Excerpt: as §1, §2, §3

| Structure (SMILES) | Second-order rate constant k2 exptl [1] [M⁻¹ s⁻¹] | Second-order rate constant k2 exptl [2] [M⁻¹ s⁻¹] | Second-order rate constant k2 exptl [3] [M⁻¹ s⁻¹] | Lewis basicity LB [4] | Second-order rate constant k2 exptl [5] [M⁻¹ s⁻¹] | Second-order rate constant k2 exptl [6] [M⁻¹ s⁻¹] |
| --- | --- | --- | --- | --- | --- | --- |
| c1ccc2c(c1)[Se]C1=NCCCN12 [ISeU3, SeDHPB] | 1980 | 18100 | 38100 | 15.54 |  |  |
| c1ccc2c(c1)OC1=NCCCN12 [IU3, ODHPB] |  | 1200 |  | 13.66 | 185000 | 896000 |

Reference: PMC12643354, “From Oxygen to Tellurium: The Impact of the Chalcogen on Nucleophilicities and Basicities of Isochalcogenourea Catalysts” (Angewandte Chemie (International Ed. in English), 2025)
